Measured values taken from ChEMBL document CHEMBL3608278 (J Med Chem, 2015).

Key:
[1] = biological target: T1, Potassium voltage-gated channel subfamily A member 3 (Homo sapiens, UniProt P22001); set-up: species or system Blood
[2] = biological target: T1, Potassium voltage-gated channel subfamily A member 3; assay: cell-based; set-up: species or system Blood
[3] = biological target: T1, Potassium voltage-gated channel subfamily A member 3; type: cell-based, CHO-K1

T1 sequence (P22001 whole entry): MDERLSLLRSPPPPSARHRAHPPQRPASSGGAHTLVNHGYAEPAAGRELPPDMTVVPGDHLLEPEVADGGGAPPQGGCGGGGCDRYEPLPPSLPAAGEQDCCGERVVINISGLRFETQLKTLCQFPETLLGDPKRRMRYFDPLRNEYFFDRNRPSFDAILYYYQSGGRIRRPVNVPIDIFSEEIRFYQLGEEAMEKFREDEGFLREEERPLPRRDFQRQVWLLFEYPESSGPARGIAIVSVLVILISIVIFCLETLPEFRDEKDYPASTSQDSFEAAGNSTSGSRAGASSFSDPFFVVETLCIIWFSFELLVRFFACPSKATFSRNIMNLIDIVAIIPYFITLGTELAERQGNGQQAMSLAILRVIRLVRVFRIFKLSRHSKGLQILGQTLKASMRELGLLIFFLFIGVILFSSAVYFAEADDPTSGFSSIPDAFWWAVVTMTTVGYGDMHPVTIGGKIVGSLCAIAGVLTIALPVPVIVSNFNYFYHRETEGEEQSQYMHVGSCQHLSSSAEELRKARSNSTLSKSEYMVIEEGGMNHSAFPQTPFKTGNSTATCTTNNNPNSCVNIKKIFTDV

| Structure (SMILES) | IC50 [1] [nM] | IC50 [2] [nM] | IC50 [3] [nM] |
| --- | --- | --- | --- |
| CC[C@H](C)[C@@H]1NC(=O)[C@@H](NC(=O)[C@H](CCCCN)NC(=O)[C@@H](N)CCCNC(=N)N)CSSC[C@@H](C(=O)O)NC(=O)[C@H]([C@@H](C)O)NC(=O)CNC(=O)[C@@H]2CSSC[C@@H]3NC(=O)[C@H](CCC(N)=O)NC(=O)[C@H](Cc4ccccc4)NC(=O)[C@H](C)NC(=O)[C@H]([C@@H](C)O)NC(=O)[C@H](CSSC[C@H](NC(=O)[C@H](Cc4ccccc4)NC(=O)[C@H](CO)NC(=O)[C@H](CC(C)C)NC(=O)[C@H](CCCNC(=N)N)NC(=O)[C@H](Cc4ccc(O)cc4)NC(=O)[C@H](CCCCN)NC(=O)[C@H](CCSC)NC(=O)[C@H](CO)NC(=O)[C@H](Cc4cnc[nH]4)NC(=O)[C@H](CCCCN)NC3=O)C(=O)N[C@@H](CCCNC(=N)N)C(=O)N[C@@H](CCCCN)C(=O)N[C@@H]([C@@H](C)O)C(=O)N2)NC(=O)[C@H](CCCNC(=N)N)NC(=O)[C@H](CO)NC(=O)[C@H](CCCCN)NC(=O)[C@@H]2CCCN2C(=O)[C@H]([C@@H](C)CC)NC(=O)[C@H]([C@@H](C)O)NC(=O)[C@H](CC(=O)O)NC1=O | 0.094 | 0.099 | 0.146 |
| CC[C@H](C)[C@@H]1NC(=O)[C@@H](NC(=O)[C@H](CO)NC(=O)[C@@H](N)CCCNC(=N)N)CSSC[C@@H](C(=O)O)NC(=O)[C@H]([C@@H](C)O)NC(=O)[C@H](CCCNC(=N)N)NC(=O)[C@@H]2CSSC[C@@H]3NC(=O)[C@H](CCC(N)=O)NC(=O)[C@H](Cc4ccccc4)NC(=O)[C@H](C)NC(=O)[C@H]([C@@H](C)O)NC(=O)[C@H](CSSC[C@H](NC(=O)[C@H](Cc4ccccc4)NC(=O)[C@H](CO)NC(=O)[C@H](CC(C)C)NC(=O)[C@H](CCCNC(=N)N)NC(=O)[C@H](Cc4ccc(O)cc4)NC(=O)[C@H](CCCCN)NC(=O)[C@H](CCSC)NC(=O)[C@H](CO)NC(=O)[C@H](Cc4cnc[nH]4)NC(=O)[C@H](CCCCN)NC3=O)C(=O)N[C@@H](CCCNC(=N)N)C(=O)N[C@@H](CCCCN)C(=O)N[C@@H]([C@@H](C)O)C(=O)N2)NC(=O)[C@H](CCCNC(=N)N)NC(=O)[C@H](CO)NC(=O)[C@H](CCCCN)NC(=O)[C@@H]2CCCN2C(=O)[C@H]([C@@H](C)CC)NC(=O)[C@H]([C@@H](C)O)NC(=O)[C@H](CC(=O)O)NC1=O | 0.223 | 0.089 | 0.221 |
| CC[C@H](C)[C@@H]1NC(=O)[C@@H](NC(=O)[C@H](CO)NC(=O)[C@@H](N)CCCNC(=N)N)CSSC[C@@H](C(=O)O)NC(=O)[C@H](CCCNC(=N)N)NC(=O)CNC(=O)[C@@H]2CSSC[C@@H]3NC(=O)[C@H](CCC(N)=O)NC(=O)[C@H](Cc4ccccc4)NC(=O)[C@H](C)NC(=O)[C@H]([C@@H](C)O)NC(=O)[C@H](CSSC[C@H](NC(=O)[C@H](Cc4ccccc4)NC(=O)[C@H](CO)NC(=O)[C@H](CC(C)C)NC(=O)[C@H](CCCNC(=N)N)NC(=O)[C@H](Cc4ccc(O)cc4)NC(=O)[C@H](CCCCN)NC(=O)[C@H](CCSC)NC(=O)[C@H](CO)NC(=O)[C@H](Cc4cnc[nH]4)NC(=O)[C@H](CCCCN)NC3=O)C(=O)N[C@@H](CCCNC(=N)N)C(=O)N[C@@H](CCCCN)C(=O)N[C@@H]([C@@H](C)O)C(=O)N2)NC(=O)[C@H](CCCNC(=N)N)NC(=O)[C@H](CO)NC(=O)[C@H](CCCCN)NC(=O)[C@@H]2CCCN2C(=O)[C@H]([C@@H](C)CC)NC(=O)[C@H]([C@@H](C)O)NC(=O)[C@H](CC(=O)O)NC1=O | 0.475 | 0.357 | 0.191 |
| CC[C@H](C)[C@@H]1NC(=O)[C@@H](NC(=O)[C@H](CO)NC(=O)[C@@H](N)CCCCN)CSSC[C@@H](C(=O)O)NC(=O)[C@H]([C@@H](C)O)NC(=O)CNC(=O)[C@@H]2CSSC[C@@H]3NC(=O)[C@H](CCC(N)=O)NC(=O)[C@H](Cc4ccccc4)NC(=O)[C@H](C)NC(=O)[C@H]([C@@H](C)O)NC(=O)[C@H](CSSC[C@H](NC(=O)[C@H](Cc4ccccc4)NC(=O)[C@H](CO)NC(=O)[C@H](CC(C)C)NC(=O)[C@H](CCCNC(=N)N)NC(=O)[C@H](Cc4ccc(O)cc4)NC(=O)[C@H](CCCCN)NC(=O)[C@H](CCSC)NC(=O)[C@H](CO)NC(=O)[C@H](Cc4cnc[nH]4)NC(=O)[C@H](CCCCN)NC3=O)C(=O)N[C@@H](CCCNC(=N)N)C(=O)N[C@@H](CCCCN)C(=O)N[C@@H]([C@@H](C)O)C(=O)N2)NC(=O)[C@H](CCCNC(=N)N)NC(=O)[C@H](CO)NC(=O)[C@H](CCCCN)NC(=O)[C@@H]2CCCN2C(=O)[C@H]([C@@H](C)CC)NC(=O)[C@H]([C@@H](C)O)NC(=O)[C@H](CC(=O)O)NC1=O | 0.073 | 0.036 | 0.154 |
| CC[C@H](C)[C@@H]1NC(=O)[C@@H](NC(=O)[C@H](CO)NC(=O)[C@@H](N)CCCNC(=N)N)CSSC[C@@H](C(=O)O)NC(=O)[C@H]([C@@H](C)O)NC(=O)CNC(=O)[C@@H]2CSSC[C@@H]3NC(=O)[C@H](CCC(N)=O)NC(=O)[C@H](Cc4ccccc4)NC(=O)[C@H](C)NC(=O)[C@H]([C@@H](C)O)NC(=O)[C@H](CSSC[C@H](NC(=O)[C@H](Cc4ccccc4)NC(=O)[C@H](CO)NC(=O)[C@H](CC(C)C)NC(=O)[C@H](CCCNC(=N)N)NC(=O)[C@H](Cc4ccc(O)cc4)NC(=O)[C@H](CCCCN)NC(=O)[C@H](CCSC)NC(=O)[C@H](CO)NC(=O)[C@H](Cc4cnc[nH]4)NC(=O)[C@H](CCCCN)NC3=O)C(=O)N[C@@H](CCCNC(=N)N)C(=O)N[C@@H](CCCCN)C(=O)N[C@@H]([C@@H](C)O)C(=O)N2)NC(=O)[C@H](CCCNC(=N)N)NC(=O)[C@H](CO)NC(=O)[C@H](CCCCN)NC(=O)[C@@H]2CCCN2C(=O)[C@H]([C@@H](C)CC)NC(=O)[C@H]([C@@H](C)O)NC(=O)[C@H](CCCCN)NC1=O | > 100 | > 100 | > 3.33 |
| CC[C@H](C)[C@@H]1NC(=O)[C@@H](NC(=O)[C@H](CO)NC(=O)[C@@H](N)CCCNC(=N)N)CSSC[C@@H](C(=O)O)NC(=O)[C@H]([C@@H](C)O)NC(=O)CNC(=O)[C@@H]2CSSC[C@@H]3NC(=O)[C@H](CCC(N)=O)NC(=O)[C@H](Cc4ccccc4)NC(=O)[C@H](C)NC(=O)[C@H]([C@@H](C)O)NC(=O)[C@H](CSSC[C@H](NC(=O)[C@H](Cc4ccccc4)NC(=O)[C@H](CO)NC(=O)[C@H](CC(C)C)NC(=O)[C@H](CCCNC(=N)N)NC(=O)[C@H](Cc4ccc(O)cc4)NC(=O)[C@H](CCCCN)NC(=O)[C@H](CCSC)NC(=O)[C@H](CO)NC(=O)[C@H](Cc4c[nH]cn4)NC(=O)[C@H](CCCCN)NC3=O)C(=O)N[C@@H](CCCNC(=N)N)C(=O)N[C@@H](CCCCN)C(=O)N[C@@H]([C@@H](C)O)C(=O)N2)NC(=O)[C@H](CCCNC(=N)N)NC(=O)[C@H](CO)NC(=O)[C@H](CCCCN)NC(=O)[C@@H]2CCCN2C(=O)[C@H]([C@@H](C)CC)NC(=O)[C@H](CCCCN)NC(=O)[C@H](CC(=O)O)NC1=O | 0.21 | 0.117 | 0.129 |
| CC[C@H](C)[C@@H]1NC(=O)[C@@H](NC(=O)[C@H](CO)NC(=O)[C@@H](N)CCCNC(=N)N)CSSC[C@@H](C(=O)O)NC(=O)[C@H]([C@@H](C)O)NC(=O)CNC(=O)[C@@H]2CSSC[C@@H]3NC(=O)[C@H](CCC(N)=O)NC(=O)[C@H](Cc4ccccc4)NC(=O)[C@H](C)NC(=O)[C@H]([C@@H](C)O)NC(=O)[C@H](CSSC[C@H](NC(=O)[C@H](Cc4ccccc4)NC(=O)[C@H](CO)NC(=O)[C@H](CC(C)C)NC(=O)[C@H](CCCNC(=N)N)NC(=O)[C@H](Cc4ccc(O)cc4)NC(=O)[C@H](CCCCN)NC(=O)[C@H](CCSC)NC(=O)[C@H](CO)NC(=O)[C@H](Cc4cnc[nH]4)NC(=O)[C@H](CCCCN)NC3=O)C(=O)N[C@@H](CCCNC(=N)N)C(=O)N[C@@H](CCCCN)C(=O)N[C@@H]([C@@H](C)O)C(=O)N2)NC(=O)[C@H](CCCNC(=N)N)NC(=O)[C@H](CO)NC(=O)[C@H](CCCCN)NC(=O)[C@@H]2CCCN2C(=O)[C@H](CCCCN)NC(=O)[C@H]([C@@H](C)O)NC(=O)[C@H](CC(=O)O)NC1=O | 13.5 | 4.67 | 0.561 |
| CC[C@H](C)[C@@H]1NC(=O)[C@@H](NC(=O)[C@H](CO)NC(=O)[C@@H](N)CCCNC(=N)N)CSSC[C@@H](C(=O)O)NC(=O)[C@H]([C@@H](C)O)NC(=O)CNC(=O)[C@@H]2CSSC[C@@H]3NC(=O)[C@H](CCC(N)=O)NC(=O)[C@H](Cc4ccccc4)NC(=O)[C@H](C)NC(=O)[C@H]([C@@H](C)O)NC(=O)[C@H](CSSC[C@H](NC(=O)[C@H](Cc4ccccc4)NC(=O)[C@H](CO)NC(=O)[C@H](CC(C)C)NC(=O)[C@H](CCCNC(=N)N)NC(=O)[C@H](Cc4ccc(O)cc4)NC(=O)[C@H](CCCCN)NC(=O)[C@H](CCSC)NC(=O)[C@H](CO)NC(=O)[C@H](Cc4cnc[nH]4)NC(=O)[C@H](CCCCN)NC3=O)C(=O)N[C@@H](CCCNC(=N)N)C(=O)N[C@@H](CCCCN)C(=O)N[C@@H]([C@@H](C)O)C(=O)N2)NC(=O)[C@H](CCCNC(=N)N)NC(=O)[C@H](CCCCN)NC(=O)[C@H](CCCCN)NC(=O)[C@@H]2CCCN2C(=O)[C@H]([C@@H](C)CC)NC(=O)[C@H]([C@@H](C)O)NC(=O)[C@H](CC(=O)O)NC1=O | 0.082 | 0.052 | 0.184 |
| CC[C@H](C)[C@@H]1NC(=O)[C@@H](NC(=O)[C@H](CO)NC(=O)[C@@H](N)CCCNC(=N)N)CSSC[C@@H](C(=O)O)NC(=O)[C@H]([C@@H](C)O)NC(=O)CNC(=O)[C@@H]2CSSC[C@@H]3NC(=O)[C@H](CCC(N)=O)NC(=O)[C@H](Cc4ccccc4)NC(=O)[C@H](C)NC(=O)[C@H](CCCCN)NC(=O)[C@H](CSSC[C@H](NC(=O)[C@H](Cc4ccccc4)NC(=O)[C@H](CO)NC(=O)[C@H](CC(C)C)NC(=O)[C@H](CCCNC(=N)N)NC(=O)[C@H](Cc4ccc(O)cc4)NC(=O)[C@H](CCCCN)NC(=O)[C@H](CCSC)NC(=O)[C@H](CO)NC(=O)[C@H](Cc4cnc[nH]4)NC(=O)[C@H](CCCCN)NC3=O)C(=O)N[C@@H](CCCNC(=N)N)C(=O)N[C@@H](CCCCN)C(=O)N[C@@H]([C@@H](C)O)C(=O)N2)NC(=O)[C@H](CCCNC(=N)N)NC(=O)[C@H](CO)NC(=O)[C@H](CCCCN)NC(=O)[C@@H]2CCCN2C(=O)[C@H]([C@@H](C)CC)NC(=O)[C@H]([C@@H](C)O)NC(=O)[C@H](CC(=O)O)NC1=O | 0.363 | 0.257 | 0.154 |
